Test results as given in ChEMBL document CHEMBL4229455, “Synthesis and anticancer activity of novel bisindolylhydroxymaleimide derivatives with potent GSK-3 kinase inhibition” (Bioorg Med Chem, 2018).

Assays:
COLO 205 = assay: Cytotoxicity against human COLO205 cells assessed as cell growth at 10 uM after 48 hrs by SRB assay relative to control; assay type: functional; conditions: COLO 205, 48 h, read-out: Activity
SK-MEL-28 = assay: Cytotoxicity against human SK-MEL-28 cells assessed as cell growth at 10 uM after 48 hrs by SRB assay relative to control; assay type: functional; conditions: SK-MEL-28, 48 h, read-out: Activity
786-0 = assay: Cytotoxicity against human 786-O cells assessed as cell growth at 10 uM after 48 hrs by SRB assay relative to control; assay type: functional; conditions: 786-0, 48 h, read-out: Activity
[1] = biological target: CDK2/Cyclin A2 (Homo sapiens) (UniProt P24941+P20248); assay: Inhibition of full length human CDK2/cyclin A assessed as residual activity at 10 uM using histone H1 as substrate in presence of [gamma-33P]ATP; assay type: protein-complex assay
MOLT-4 = assay: Cytotoxicity against human MOLT4 cells assessed as cell growth at 10 uM after 48 hrs by SRB assay relative to control; assay type: functional; conditions: MOLT-4, 48 h, read-out: Activity
HL-60(TB) = assay: Cytotoxicity against human HL-60(TB) cells assessed as cell growth at 10 uM after 48 hrs by SRB assay relative to control; assay type: functional; conditions: HL-60, 48 h, read-out: Activity
A498 = assay: Cytotoxicity against human A498 cells assessed as cell growth at 10 uM after 48 hrs by SRB assay relative to control; assay type: functional; conditions: A498, 48 h, read-out: Activity
NCI-H23 = assay: Cytotoxicity against human NCI-H23 cells assessed as cell growth at 10 uM after 48 hrs by SRB assay relative to control; assay type: functional; conditions: NCI-H23, 48 h, read-out: Activity
SF-539 = assay: Cytotoxicity against human SF539 cells assessed as cell growth at 10 uM after 48 hrs by SRB assay relative to control; assay type: functional; conditions: SF-539, 48 h, read-out: Activity
MDA-MB-231 = assay: Cytotoxicity against human MDA-MB-231 cells assessed as cell growth at 10 uM after 48 hrs by SRB assay relative to control; assay type: functional; conditions: MDA-MB-231, 48 h, read-out: Activity
SW-620 = assay: Cytotoxicity against human SW620 cells assessed as cell growth at 10 uM after 48 hrs by SRB assay relative to control; assay type: functional; conditions: SW-620, 48 h, read-out: Activity
LOX IMVI = assay: Cytotoxicity against human LOXIMVI cells assessed as cell growth at 10 uM after 48 hrs by SRB assay relative to control; assay type: functional; conditions: read-out: Activity
[2] = biological target: Dual specificity tyrosine-phosphorylation-regulated kinase 1A (Rattus norvegicus) (UniProt Q63470); assay: Inhibition of recombinant rat DYRK1A kinase domain expressed in bacteria assessed as residual activity at 10 uM using KKISGRLSPIMTEQ as substrate in presence of [gamma-33P]ATP
CDK2/Cyclin A2 = CDK2/Cyclin A2 (Homo sapiens, UniProt P24941); assay: Inhibition of full length human CDK2/cyclin A using histone H1 as substrate in presence of [gamma-33P]ATP; assay type: protein-complex assay
CAKI-1 = assay: Cytotoxicity against human Caki1 cells assessed as cell growth at 10 uM after 48 hrs by SRB assay relative to control; assay type: functional; conditions: CAKI-1, 48 h, read-out: Activity
Hs-578T = assay: Cytotoxicity against human Hs 578T cells assessed as cell growth at 10 uM after 48 hrs by SRB assay relative to control; assay type: functional; conditions: read-out: Activity
MDA-MB-435 = assay: Cytotoxicity against human MDA-MB-435 cells assessed as cell growth at 10 uM after 48 hrs by SRB assay relative to control; assay type: functional; conditions: MDA-MB-435, 48 h, read-out: Activity
UO-31 = assay: Cytotoxicity against human UO31 cells assessed as cell growth at 10 uM after 48 hrs by SRB assay relative to control; assay type: functional; conditions: UO-31, 48 h, read-out: Activity
T47D = assay: Cytotoxicity against human T47D cells assessed as cell growth at 10 uM after 48 hrs by SRB assay relative to control; assay type: functional; conditions: read-out: Activity
HCT-15 = assay: Cytotoxicity against human HCT15 cells assessed as cell growth at 10 uM after 48 hrs by SRB assay relative to control; assay type: functional; conditions: HCT-15, 48 h, read-out: Activity
SF-268 = assay: Cytotoxicity against human SF268 cells assessed as cell growth at 10 uM after 48 hrs by SRB assay relative to control; assay type: functional; conditions: SF-268, 48 h, read-out: Activity
MCF7 = assay: Cytotoxicity against human MCF7 cells assessed as cell growth at 10 uM after 48 hrs by SRB assay relative to control; assay type: functional; conditions: MCF7, 48 h, read-out: Activity
[3] = biological target: Cyclin-dependent kinase 5/CDK5 activator 1 (Homo sapiens) (UniProt Q00535+Q15078); assay: Inhibition of recombinant full length human CDK5/p25 expressed in bacteria assessed as residual activity at 10 uM using histone H1 as substrate in presence of [gamma-33P]ATP
HT-29 = assay: Cytotoxicity against human HT-29 cells assessed as cell growth at 10 uM after 48 hrs by SRB assay relative to control; assay type: functional; conditions: HT-29, 48 h, read-out: Activity
Malme-3M = assay: Cytotoxicity against human MALME-3M cells assessed as cell growth at 10 uM after 48 hrs by SRB assay relative to control; assay type: functional; conditions: read-out: Activity
[4] = Inhibition of domestic porcine brain full length […] using RRKHAAIGSpAYSITA as substrate in presence of [gamma-33P]ATP; set-up: species or system Sus scrofa domesticus
HOP-62 = assay: Cytotoxicity against human HOP62 cells assessed as cell growth at 10 uM after 48 hrs by SRB assay relative to control; assay type: functional; conditions: HOP-62, 48 h, read-out: Activity
[5] = biological target: Serine/threonine-protein kinase pim-1 (Homo sapiens, UniProt P11309); assay: Inhibition of recombinant full length human PIM1 expressed in bacteria using histone H1 as substrate in presence of [gamma-33P]ATP
NCI-H226 = assay: Cytotoxicity against human NCI-H226 cells assessed as cell growth at 10 uM after 48 hrs by SRB assay relative to control; assay type: functional; conditions: NCI-H226, 48 h, read-out: Activity
Aurora kinase B = Aurora kinase B (Homo sapiens, UniProt Q96GD4); assay: Inhibition of recombinant full length human aurora B expressed in baculovirus infected Sf9 insect cells using MBP as substrate in presence of [gamma-33P]ATP
SNB-19 = assay: Cytotoxicity against human SNB19 cells assessed as cell growth at 10 uM after 48 hrs by SRB assay relative to control; assay type: functional; conditions: SNB-19, 48 h, read-out: Activity
K562 = assay: Cytotoxicity against human K562 cells assessed as cell growth at 10 uM after 48 hrs by SRB assay relative to control; assay type: functional; conditions: K562, 48 h, read-out: Activity
CCRF-CEM = assay: Cytotoxicity against human CCRF-CEM cells assessed as cell growth at 10 uM after 48 hrs by SRB assay relative to control; assay type: functional; conditions: read-out: Activity

Cyclin-dependent kinase 5/CDK5 activator 1 (Homo sapiens), sequence (Q00535 whole entry): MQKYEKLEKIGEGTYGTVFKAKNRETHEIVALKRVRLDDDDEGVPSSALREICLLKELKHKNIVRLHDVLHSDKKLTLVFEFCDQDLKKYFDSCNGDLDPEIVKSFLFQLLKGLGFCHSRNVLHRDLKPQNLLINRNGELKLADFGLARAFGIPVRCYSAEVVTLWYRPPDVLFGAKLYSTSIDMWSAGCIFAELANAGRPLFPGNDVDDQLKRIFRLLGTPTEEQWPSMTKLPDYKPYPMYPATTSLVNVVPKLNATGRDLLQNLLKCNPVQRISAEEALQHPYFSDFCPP
Cyclin-dependent kinase 5/CDK5 activator 1 (Homo sapiens), sequence (Q15078 99-307 partner limits assumed): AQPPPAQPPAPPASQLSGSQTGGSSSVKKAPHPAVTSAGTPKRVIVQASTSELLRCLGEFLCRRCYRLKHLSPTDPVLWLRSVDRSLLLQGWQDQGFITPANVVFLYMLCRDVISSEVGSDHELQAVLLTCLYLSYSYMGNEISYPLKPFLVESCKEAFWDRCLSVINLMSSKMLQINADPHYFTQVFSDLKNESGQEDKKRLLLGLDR
Aurora kinase B, sequence (Q96GD4 whole entry): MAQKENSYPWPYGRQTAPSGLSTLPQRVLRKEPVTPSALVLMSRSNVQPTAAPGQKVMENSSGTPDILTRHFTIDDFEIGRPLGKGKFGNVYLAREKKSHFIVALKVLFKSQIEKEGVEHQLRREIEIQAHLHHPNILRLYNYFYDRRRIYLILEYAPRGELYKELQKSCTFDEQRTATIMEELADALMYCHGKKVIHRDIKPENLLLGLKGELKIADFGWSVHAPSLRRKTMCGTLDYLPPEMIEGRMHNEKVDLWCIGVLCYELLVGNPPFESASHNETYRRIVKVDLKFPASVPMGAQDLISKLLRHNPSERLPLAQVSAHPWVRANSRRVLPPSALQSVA
Serine/threonine-protein kinase pim-1, sequence (P11309 whole entry): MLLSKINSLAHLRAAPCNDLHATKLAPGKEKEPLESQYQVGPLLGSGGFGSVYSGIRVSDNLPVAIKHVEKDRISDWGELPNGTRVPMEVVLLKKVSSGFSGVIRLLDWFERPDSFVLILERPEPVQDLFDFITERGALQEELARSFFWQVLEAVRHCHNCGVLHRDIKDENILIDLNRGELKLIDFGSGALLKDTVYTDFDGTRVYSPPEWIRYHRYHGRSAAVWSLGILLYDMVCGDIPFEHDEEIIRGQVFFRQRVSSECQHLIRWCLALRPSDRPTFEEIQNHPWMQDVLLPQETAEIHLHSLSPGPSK

| Compound | growth at 10 µM (COLO 205) | growth at 10 µM (SK-MEL-28) | growth at 10 µM (786-0) | Activity [1] | growth at 10 µM (MOLT-4) | growth at 10 µM (HL-60(TB)) | growth at 10 µM (A498) | growth at 10 µM (NCI-H23) | growth at 10 µM (SF-539) | growth at 10 µM (MDA-MB-231) | growth at 10 µM (SW-620) | growth at 10 µM (LOX IMVI) | Activity [2] | IC50 (CDK2/Cyclin A2) | growth at 10 µM (CAKI-1) | growth at 10 µM (Hs-578T) | growth at 10 µM (MDA-MB-435) | growth at 10 µM (UO-31) | growth at 10 µM (T47D) | growth at 10 µM (HCT-15) | other results |
| --- | --- | --- | --- | --- | --- | --- | --- | --- | --- | --- | --- | --- | --- | --- | --- | --- | --- | --- | --- | --- | --- |
| CC(C)n1cc(C2=C(c3cn(C)c4ccccc34)C(=O)N(O)C2=O)c2ccccc21 | 101% | 112% | 86.5% | 23% | 82.4% | 98.7% | 99% | 81.8% | 97.6% | 70.1% | 101% | 61.5% | 54% | 7 µM | 72.7% | 91.2% | 104% | 56.4% | 87.3% | 96.9% | growth at 10 µM (SF-268): 97.3%; growth at 10 µM (MCF7): 91.6%; Activity [3]: 34%; growth at 10 µM (HT-29): 105%; growth at 10 µM (Malme-3M): 89%; IC50 [4]: > 10 µM; growth at 10 µM (HOP-62): 84.6%; IC50 [5]: > 10 µM; growth at 10 µM (NCI-H226): 77.2%; IC50 (Aurora kinase B): > 10 µM; growth at 10 µM (SNB-19): 101%; growth at 10 µM (K562): 77.7% |
| Cn1cc(C2=C(c3cn(CCCCCC#N)c4ccccc34)C(=O)N(O)C2=O)c2ccccc21 | 92.6% | 109% | 83.7% | 64% | 95.7% | 124% | 76.7% | 88.1% | 98.4% | 58.9% | 101% | 60.2% | 24% | > 10 µM | 81.3% | 93.5% | 68.1% | 50.8% | 78.5% | 91.2% | growth at 10 µM (CCRF-CEM): 83.3%; growth at 10 µM (SF-268): 94.9%; growth at 10 µM (MCF7): 77.7%; Activity [3]: 49%; growth at 10 µM (HT-29): 90.1%; IC50 [4]: > 10 µM; growth at 10 µM (HOP-62): 89.6%; IC50 [5]: > 10 µM; growth at 10 µM (NCI-H226): 77.8%; IC50 (Aurora kinase B): > 10 µM; growth at 10 µM (SNB-19): 104%; growth at 10 µM (K562): 78.8% |
| O=C(O)CCCCCn1cc(C2=C(c3c[nH]c4ccccc34)C(=O)N(O)C2=O)c2ccccc21 | 102% | 111% | 93% | 66% | 99.7% | 108% | 88.5% | 97.6% | 96.3% | 92.6% | 95.3% | 80.4% | 24% | > 10 µM | 92.2% | 103% | 102% | 61% | 96.2% | 97.3% | growth at 10 µM (CCRF-CEM): 96.2%; growth at 10 µM (SF-268): 98.3%; growth at 10 µM (MCF7): 102%; Activity [3]: 60%; growth at 10 µM (HT-29): 101%; IC50 [4]: > 10 µM; growth at 10 µM (HOP-62): 86.8%; IC50 [5]: > 10 µM; growth at 10 µM (NCI-H226): 92.5%; IC50 (Aurora kinase B): > 10 µM; growth at 10 µM (SNB-19): 107%; growth at 10 µM (K562): 94.8% |
